Earlier results on one compound are cited in patent US7517878B2, “Heteroarylaminopyrazole derivatives useful for the treatment of diabetes” (Bayer Pharamceuticals Corporation, priority 2004, dated 2009).

The series deals with INS-1 cells. Conditions: INS-1 cells maintained in the presence of beta-mercaptoethanol; Hohmeier, et al., Diabetes 49:424, 2002; read-out: EC50 of insulin secretion in response to glucose.

Broadly, the EC50 is the concentration at which the effect is half-maximal. Take `O=C[C@H](O)[C@@H](O)[C@H](O)[C@H](O)CO` [glucose]: the 50% effective concentration (EC50) was 6 mM.
